Reference: publication PMC11222147, “Host defence peptide plectasin targets bacterial cell wall precursor lipid II by a calcium-sensitive supramolecular mechanism” (Nature Microbiology, 2024)
Values after ≈ are worked out from the molar mass of the structure shown. Like-named read-outs stand apart in the source and are kept apart here.

What was measured:
[1] = ITC of bivalent cation binding to plectasin in solution; conditions: mean of duplicate, read-out: Kd, Mg^2+ binding to plectasin (ITC)
[2] = as above; conditions: mean of duplicate, read-out: Kd, Ca^2+ binding to plectasin (ITC)
[3] = test system: S. simulans 22; type: cell-based, Staphylococcus simulans; conditions: for MIC: cation-depleted MHB + 0.5 mM MgCl2 + 10 µM ZnSO4
Protocol: Cation-depleted MHB was prepared as previously described[18] and supplemented with MgCl2 (0.5 mM) and ZnSO4 (10 µM). Plectasin was serially diluted twofold over a 96-well polypropylene plate. Serial dilutions of Ca^2+ in calcium-depleted medium were subsequently added to the wells containing the plectasin dilution series, followed by addition of bacterial suspensions. MICs were determined by visual inspection after 16–20 h (Staphylococcus). The effect of reduced Ca^2+ levels on S. simulans growth in the absence of plectasin was assessed by monitoring growth at 37 °C by OD600 over 18 h (Supplementary Fig. 4).

[4] = test system: S. simulans; experiment: DPH anisotropy membrane fluidity measurements; type: cell-based, Staphylococcus simulans; conditions: intact S. simulans cells, 1 µM plectasin, 37 °C, biological triplicates
Protocol: Preparation of S. simulans stock solutions was done as described above for bacterial permeabilization in PBS. About 1 ml of a cell suspension of OD600 = 0.1 in PBS was treated with 1 µM plectasin and incubated at 37 °C. All assays were performed on a Cary Eclipse (FL0904M005) fluorometer fitted with a manual polarizer accessory (Varian). Measurements were conducted at 37 °C under constant stirring in a 4 × 10 mm quartz cuvette. About 10 µM DPH was added from a 1 mM stock in dimethyl sulfoxide (bringing the final dimethyl sulfoxide concentration to 1 vol%) and incubated for 5 min. Fluorescence was excited with 380 nm light (10 nm slit) and recorded between 430 and 520 nm (10 nm slit) with 0.5 s averaging time and data interval of 1.66 nm per point. Fluorescence anisotropy was calculated using the maximum intensity of each spectrum according to the following equation (where IVV and IVH represent the fluorescence intensity using parallel and orthogonal excitation and emission polarization filters, respectively): r=IVV−IVH/IVV+2IVH

[5] = test system: S. pneumoniae ATCC6305; experiment: MIC assays under standard conditions; type: cell-based, Streptococcus pneumoniae; conditions: Supplementary Table 1; cation-adjusted MHB + 5% lysed horse blood, 5% CO2, 20–24 h
Outline: (§1)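 Broth microdilution in cation-adjusted MHB, inoculum from OD600 0.5 TSB culture diluted 100-fold, 37 °C with shaking. Streptococci: 5% lysed horse blood, 5% CO2, MIC read visually at 20–24 h; S. simulans read at 16–20 h.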

[6] = test system: S. pneumoniae serotype 8; experiment: MIC assays under standard conditions; type: cell-based, Streptococcus pneumoniae; conditions: Supplementary Table 1; cation-adjusted MHB + 5% lysed horse blood, 5% CO2, 20–24 h
Outline: as §1

[7] = Tryptophan fluorescence spectroscopy, lipid II binding affinity
Protocol: Plectasin’s single tryptophan can be used to monitor insertion into the membrane. Measurements were done on a Cary Eclipse (FL0904M005) fluorimeter at 20 °C under constant stirring in a 4 × 10 mm quartz cuvette. For titration experiments, the cuvette was oriented perpendicular to the excitation beam to minimize scattering. LUVs with or without 2 mol% lipid II (prepared as described above at 1–5 mM total lipid concentration) were titrated to 100 nM plectasin in 50 mM HEPES, 150 mM NaCl at pH = 7.2. Fluorescence was excited at 280 nm (5 nm slit) and recorded between 300 and 400 nm (10 nm slit) at 1 nm intervals with 1 s averaging per point. Spectra were corrected for a blank using buffer and for scattering using a titration series in the absence of plectasin. Corrected spectra were fit with log-normal distributions, and the shift of the resulting wavelength of maximum fluorescence (Δλmax) as a function of lipid II concentration on the outside of the vesicles was fit using a quadratic binding equation[54] to obtain the binding affinities.

[8] = Confocal microscopy of GUVs doped with Und-NBD-lipid II; conditions: GUVs 0.4 mol% Und-NBD-LII in DOPC, 1 μM antibiotic
Protocol: GUVs were prepared by electroformation using in-house build Teflon cells with two titanium wires as electrodes. About 1 μl of 0.5 mM DOPC with 0.4 mol% NBD–lipid II in 2:1 CHCl3/MeOH was brushed on both electrodes and thoroughly dried under vacuum. Next, the cell was filled with 350 μl 300 mM sucrose, and GUVs were formed by applying an oscillating voltage (sine wave, 2 V, 10 Hz) for 90 min and released from the electrodes (square wave, 2 V, 2 Hz). Microscopy slides were precoated using a 1 mg ml^−1 BSA solution. Slides were filled with 300 μl 300 mM glucose solution, followed by addition of the antibiotic and finally 30–50 μl GUV solution. The GUVs were imaged using a Zeiss LSM 880 confocal microscope with a ×63/1.2NA glycerol objective lens. Green fluorescence (530–545 nm) was detected after excitation with a 488 nm laser.

[9] = test system: mammalian cells; conditions: cited from earlier work
[10] = test system: S. simulans 22; experiment: MIC assays under standard conditions; type: cell-based, Staphylococcus simulans
Outline: as §1

[11] = HS-AFM oligomerization on supported lipid bilayers doped with lipid II; conditions: DOPC/DOPG (1:1), 1% lipid II, 1 mM Ca^2+
Protocol: HS-AFM imaging was performed on a supported lipid bilayer deposited on mica using an amplitude modulation tapping mode HS-AFM from RIBM (Ando type)[11]. The lipid compositions are as stated in the experimental conditions of the corresponding results. Short cantilevers (∼7 μm) with a nominal spring constant of 0.15 N m^−1 were used (USC-F1.2-k0.15, NanoWorld) for all experiments. A minimal imaging force was applied by using a small set-point amplitude, typically 80% of the free amplitude (for 1–2 nm of free amplitude). […] Imaging was started on the lipid bilayer surface in recording buffer. […] All reported experiments were repeated for at least three times for each condition. Image analysis was done using Igor Pro version 6.22 (Wavemetrics) with RIBM script and ImageJ version 1.501 with minimal image corrections (tilt, drift and background corrections). The time stamps on HS-AFM videos are relative to plectasin addition into the liquid chamber. Image acquisition rate varied from 0.5 frames per second to 2 frames per second (see the figure/video legends).

[12] = test system: S. pyogenes M3; experiment: MIC assays under standard conditions; type: cell-based, Streptococcus pyogenes; conditions: Supplementary Table 1; cation-adjusted MHB + 5% lysed horse blood, 5% CO2, 20–24 h
Protocol: Plectasin and analogues were serially diluted in cation-adjusted Mueller–Hinton broth (MHB) in round-bottom polypropylene 96-well plates (50 µl per well). Selected bacterial strains were grown from glycerol stocks on blood agar plates. Individual colonies were inoculated in TSB and incubated at 37 °C while shaking until OD600 reached 0.5. Bacterial suspensions were then diluted 100 times in cation-adjusted MHB and distributed (50 μl per well) over the microplate containing the diluted plectasin solutions. Plates were covered by a gas-permeable adhesive membrane and incubated at 37 °C while shaking. MICs were determined by visual inspection after 16–20 h (Staphylococcus) or 20–24 h (Streptococcus). For Streptococcus strains, the broth was additionally supplemented with 5% lysed horse blood, and the microplates were incubated under 5% CO2 atmosphere. In the assays, we used the following strains: S. simulans, S. pneumoniae serotype 8, S. pneumoniae ATCC6305 and Streptococcus pyogenes M3.

CC[C@H](C)[C@@H]1NC(=O)[C@H](CO)NC(=O)[C@H](CCCCN)NC(=O)[C@@H]2CSSC[C@@H](C(=O)N[C@@H](Cc3ccc(O)cc3)C(=O)O)NC(=O)[C@H](CCCCN)NC(=O)[C@@H]3CSSC[C@H](NC(=O)[C@H](CCC(N)=O)NC(=O)[C@H](CCSC)NC(=O)[C@H](CC(=O)O)NC(=O)[C@H](CC(=O)O)NC(=O)[C@H](CCC(=O)O)NC(=O)[C@H](CC(=O)O)NC(=O)[C@H](Cc4c[nH]c5ccccc45)NC(=O)[C@@H]4CCCN4C(=O)CNC(=O)[C@H](CC(N)=O)NC(=O)[C@@H](NC(=O)CNC(=O)[C@H](Cc4ccccc4)NC(=O)CN)CSSC[C@H](NC(=O)[C@H](Cc4ccc(O)cc4)NC(=O)CNC(=O)CNC(=O)[C@H](CCCCN)NC(=O)[C@H](Cc4ccc(O)cc4)NC(=O)CNC(=O)[C@H](CCCCN)NC1=O)C(=O)N[C@@H](C)C(=O)N[C@@H](CCCCN)C(=O)NCC(=O)NCC(=O)N[C@@H](Cc1ccccc1)C(=O)N[C@@H](C(C)C)C(=O)N3)C(=O)N[C@@H](Cc1c[nH]cn1)C(=O)N[C@@H](CC(N)=O)C(=O)N[C@@H](Cc1c[nH]cn1)C(=O)N2 [Plectasin wt]
Kd [1]: 195 ± 35 nM | Kd [2]: 159 ± 69 nM | improvement of antimicrobial activity with increasing Ca^2+ concentration ([3]; Ca^2+ variable assay): 4-8 fold | MIC ([3]; Calcium 0 mM): 12.5 µg/mL | MIC ([3]; Calcium 0.31 mM): 1.56 µg/mL | MIC ([3]; Calcium 0.5 mM): 1.56 µg/mL | MIC ([3]; Calcium 0.63 mM): 1.56 µg/mL | MIC ([3]; Calcium 1.25 mM): 1.56 to 3.13 µg/mL | MIC ([3]; Calcium 2.5 mM): 3.13 µg/mL | DPH fluorescence anisotropy (membrane fluidity) [4]: decrease in the fluorescence anisotropy | Minimum inhibitory concentration, S. pneumoniae ATCC6305 [5]: ≤ 0.78 µg/mL | Minimum inhibitory concentration, S. pneumoniae serotype 8 [6]: 1,56 μg/mL | Kd ([7]; DOPC liposomes, 1 mM Mg^2+): 80 nM | Kd ([7]; DOPC liposomes, without bivalent ions (100 μM EDTA)): 155 nM | Kd ([7]; anionic DOPC/DOPG (1:1) liposomes, 1 mM Ca^2+): 1 nM | Kd ([7]; anionic DOPC/DOPG (1:1) liposomes, 1 mM Mg^2+): 4 nM | Kd ([7]; anionic DOPC/DOPG (1:1) liposomes, without bivalent ions (100 μM EDTA)): 27 nM | lipid II binding affinity increase in the presence of Ca^2+ ([7]; neutral DOPC liposomes, with Ca^2+ vs without bivalent ions): > 100 fold | Kd ([7]; zwitterionic DOPC liposomes, 2 mol% lipid II, 1 mM Ca^2+, 100 nM plectasin, HEPES pH 7.2, 20 °C): 1 nM | lipid II cluster/domain formation on GUVs [8]: cluster formation | toxicity against mammalian cells [9]: lack of plectasin toxicity against mammalian cells | Minimum inhibitory concentration, S. simulans ([10]; Supplementary Table 1, cation-adjusted MHB, 37 °C, 16–20 h): 0,78 μg/mL | MIC expressed as plectasin concentration ([10]; corresponding to 0.78 µg ml^−1): 0.177 µM (≈ 0.779 µg/mL) | plectasin concentration giving full coverage (AFM) [11]: 400 nM | plectasin concentration giving partial coverage (AFM) [11]: 300 nM | plectasin concentration above which supra-structures emerge (AFM) ([11]; 10 min after addition): > 200 nM | Minimum inhibitory concentration, S. pyogenes M3 [12]: ≤ 0,012 μg/mL
